# Experimental data taken from a melting point compilation (Tetko et al.).
# Details: a range is the spread between reports
row,Compound,melting point [°C]
1,Oc1ccc(Cl)c(Cl)c1,66 to 68
2,OC1C2CCC(C2)C1O (stereo unspecified),139 to 141
3,CCCOC(=O)c1ccc(O)cc1,96 to 97
4,CCCCCCCCCCCCCCCC(=O)O,61 to 62.5
5,Oc1c(Br)c(Br)c(Br)c(Br)c1Br,226 to 230
6,BrCCBr,9.9 to 10
7,c1ccc(CN(Cc2ccccc2)c2ccccc2)cc1,69 to 70
8,SC(c1ccccc1)(c1ccccc1)c1ccccc1,105 to 106
9,Nc1nc(N)nc(-c2ccccc2)n1,226 to 227
10,O=[N+]([O-])c1ccc(Oc2ccc(C(F)(F)F)cc2[N+](=O)[O-])cc1,90 to 94
11,C=C(Cl)C(=O)O,65 to 66
12,NS(=O)(=O)Cc1noc2ccccc12,162
13,O=[N+]([O-])c1cc(S(=O)(=O)c2ccc(F)c([N+](=O)[O-])c2)ccc1F,194
14,CCC1(O)CC2CN(CCc3c([nH]c4ccccc34)C(C(=O)OC)(c3cc4c(cc3OC)N(C=O)C3C(O)(C(=O)OC)C(OC(C)=O)C5(CC)C=CCN6CCC43C65)C2)C1 (stereo unspecified),219
15,O=[N+]([O-])c1ccc(CCl)cc1,71 to 73
16,CN,-93.4 to -93
17,NC(=O)c1ccccc1O,140 to 142
18,Oc1c(Br)cccc1Br,55 to 56.5
19,Oc1ccc2cccc(O)c2c1,180 to 182
20,O=c1[nH]c2ccccc2n1CCCN1CCC(n2c(=O)[nH]c3cc(Cl)ccc32)CC1,238 to 242
21,O=CNc1ccccc1,46 to 47
22,Clc1cccc(Cl)c1,-25 to -24.8
23,Nc1cc(Cl)ccc1O,140 to 143
24,N#Cc1ccc2c(c1)OCO2,93 to 94
25,COc1cccc(C(=O)O)c1O,151 to 152

row,Compound,melting point [°C]
1,CNc1ccccc1[N+](=O)[O-],35 to 38
2,O=C(O)c1c(F)ccc(F)c1F,130 to 131
3,c1ccc(-c2ccc(-c3ccc(-c4ccccc4)cc3)cc2)cc1,317 to 320
4,O=C1CCCCC1=O,37 to 40
5,c1ccc2c(c1)Oc1ccccc1O2,122
6,Sc1ccc(Br)cc1,73 to 75
7,O=P(O)(O)CP(=O)(O)O,200 to 203
8,CCCS,-113
9,Oc1cccc(Cl)c1Cl,56 to 59
10,O=C(O)CCCCCCCBr,38.5 to 39
11,Oc1ccc(N=Nc2ccccc2)cc1,154 to 155
12,O=[N+]([O-])c1ccccc1SSc1ccccc1[N+](=O)[O-],194 to 196
13,O=Cc1ccc(O)c(O)c1,153 to 155
14,CCOC(=O)NCCOc1ccc(Oc2ccccc2)cc1,53 to 53.5
15,CCN=c1nc(Cl)[nH]c(=NC(C)C)[nH]1,172 to 177
16,O=C(Cl)c1ccccc1F,4 to 5
17,OCC1c2ccccc2-c2ccccc21,104 to 106
18,Cc1ccc(O)c([N+](=O)[O-])c1,34 to 36.5
19,O=C(O)C(F)(F)C(F)(F)C(=O)O,115 to 119
20,C1=CC=CCC=C1,-80 to -79.5
21,c1ccc(CNc2ncnc3nc[nH]c23)cc1,231
22,O=C=S,-139
23,Nc1c(Cl)ccc(Cl)c1C(=O)O,152 to 155
24,O=C1C=Cc2cccc3cccc1c23,154
25,COc1cccc(C=O)c1O,41 to 44.5

row,Compound,melting point [°C]
1,O=C(Oc1ccccc1)c1ccccc1C(=O)Oc1ccccc1,73 to 75
2,C(CC1CCNCC1)CC1CCNCC1,66 to 67.1
3,O=C(O)c1cccc(C(F)(F)F)c1,105 to 106
4,COc1ccccc1CC#N,66 to 69.8
5,NC(=O)Oc1ccccc1,150 to 151
6,CCC(=O)c1ccccc1,18 to 19
7,c1cc2c3c(c1)ccc1cccc(c13)C2,114 to 116
8,OC(c1ccccc1)c1ccccc1,66 to 69
9,O=C(CCl)CCl,44 to 45
10,Oc1ccc2ccccc2c1,122 to 123
11,Clc1ccc(Cl)s1,-41 to -40.5
12,COc1ccccc1[N+](=O)[O-],9.4 to 10.5
13,NC1CCCC1,-85.7 to -82.7
14,Nc1ccccc1Oc1ccccc1,45.8 to 47
15,CCCCCCCCOc1ccc(C(=O)c2ccccc2)c(O)c1,48 to 48.5
16,C=CCCCCCCCCCO,-3 to -2
17,CCOC(=O)c1ccc(O)cc1,116 to 117
18,CCOc1ccc2ccccc2c1C=O,112 to 115
19,OCc1cc(Cl)cc(Cl)c1,78 to 80.5
20,OCC(O)c1ccccc1 (stereo unspecified),67 to 68
21,CCCI,-101
22,O=Cc1c(O)ccc2ccccc12,79 to 83
23,Nc1cccc2ccc(O)cc12,206 to 208

# Further lines, results first:
row,melting point [°C],Compound
1,-17 to -16.4,CC(C)(C)C
2,90 to 93.5,CC(=CC(=O)O)C(=O)O
3,11 to 12,CC(S)C(=O)O (stereo unspecified)
4,80 to 82.5,COc1ccc(OC)c(N)c1
5,-101,CCC(C)C(C)(C)CC (stereo unspecified)
6,65 to 68,Cc1ccc(O)c(O)c1
7,205 to 208,COc1cc(C(=O)O)cc(OC)c1O
8,30 to 32,CCOC(=O)C(=Cc1ccccc1)C(=O)OCC
9,47 to 50.5,CCc1nc(C)c[nH]1
10,-99.3 to -99,CCOC(=O)CC(C)C
11,-34.4 to -34,CC(Br)CCCBr (stereo unspecified)
12,-48.2 to -48,CCCCCCCI
13,-31.2 to -31,CCc1ccccc1CC
14,5 to 5.2,CCCCCCCCCCCC(=O)OC
15,72.5 to 73,NC(=O)C(F)(F)F
16,70 to 71.5,CCN(CC)C(=S)SSC(=S)N(CC)CC
17,89 to 90,COc1cc(O)ccc1O
18,-88 to -87.5,CCC(=O)OC
19,64 to 64.7,Cc1cc(Br)ccc1O
20,31 to 33,Cc1ccc(N)cc1F
21,56 to 60,COc1ccc(OC)cc1
22,28 to 32,COc1ccccc1O

row,melting point [°C],Compound
1,128 to 129,Cc1cc(O)ccc1O
2,-1 to 0,CCCCCCCCN
3,96 to 98.5,CC(=O)c1cccc(N)c1
4,174 to 175,CCC(C)C(=O)OC1CC(C)C=C2C=CC(C)C(CCC3CC(O)CC(=O)O3)C21 (stereo unspecified)
5,52 to 55,CCCCCCCCP(=O)(CCCCCCCC)CCCCCCCC
6,59 to 63,Cc1cc(O)c(C(C)C)cc1Cl
7,-134,C=CC(C)(C)CC
8,94.5 to 97,COc1ccc(C(=O)OC(=O)c2ccc(OC)cc2)cc1
9,23 to 26,Cc1ccc(Cl)cc1N
10,136 to 137,CCOc1cccc(C(=O)O)c1
11,-125 to -124,C#CCCC(C)C
12,33 to 36,CC(C)(C)C(=O)O
13,-88 to -87.7,CCCCC(C)CCCC
14,30 to 32,Cc1cncnc1
15,44 to 45,CCOC(=O)c1ccc(C(=O)OCC)cc1
16,-11 to -10,CCCCOC(=O)CCCCCCCCC(=O)OCCCC
17,-45 to -43,CCOC(=O)CC(C)=O
18,87.5 to 89,CC(C)(C)OC(=O)NCC(=O)O
19,7.5 to 8,CC1=CC(=O)OC1=O
20,-77 to -73.5,CC(C)CNCC(C)C
21,240,CCn1cc(C(=O)O)c(=O)c2cc(F)c(N3CCNC(C)C3)c(F)c21 (stereo unspecified)
